{"source": "patent EP2067481A1", "about": "“Therapeutic use of desacyl ghrelin” (Charité - Universitätsmedizin Berlin, priority 2007, dated 2009)", "experiment": "Study underlying Fig. 6: cumulative food intake after ip ghrelin and desacyl ghrelin, alone or simultaneously, freely fed rats, light phase", "type": "in vivo, SD rats", "conditions": "ghrelin 13 µg/kg ip plus vehicle", "protocol": "Male adult SD rats (Harlan-Winkelmann Co., Borchen, Germany) weighting 250 g were housed in groups of 4 rats/cage under conditions of controlled illumination (12:12 h light/dark cycle, lights on/off: 6:30 a.m./6:30 p.m.), humidity, and temperature (22 ± 2°C). Animals were fed with a standard rat diet (Altromin®, Lage, Germany) and tap water ad libitum. All animals were trained daily to be accustomed to the experimental conditions for 14 days before starting the experiments. During the handling phase, the back position was practiced to make animals familiar with receiving an ip injection.\nRat desacyl ghrelin (0.5 mg/ml; Peptides International, Louisville, USA) or rat ghrelin (1 mg/ml) was dissolved in distilled water and stored at -20°C. Immediately before starting the experiments, peptides were diluted in vehicle solution consisting of sterile 0.15 M NaCl (Braun, Melsungen, Germany) to reach the final concentration of 13 µg (∼4 nmol) ghrelin/kg, and 64 µg (∼20 nmol) or 127 µg (∼40 nmol) desacyl ghrelin/kg body weight. Peptide solutions were kept on ice for the duration of the experiments. […]\nOn the day of the experiment, freely fed animals were injected ip simultaneously (final volume: 0.5 ml) with vehicle plus vehicle (0.15 M NaCl + 0.15 M NaCl, n=13), ghrelin plus vehicle (13 µg/kg + 0.15 M NaCl, n=13), ghrelin (13 µg/kg) plus 64 µg/kg or 127 µg/kg desacyl ghrelin (n =13 in both groups), or vehicle plus 64 µg/kg desacyl ghrelin (n=13) and returned to single housing cages immediately after the injection. […] Food intake was determined by measuring the difference between the preweighed standard chow and the weight of chow at the end of the first 30 min, 1 h and 2 h food exposure.\nThe cumulative food intake monitored at the end of the first 30 min, 1 h, and 2 h after peptide or vehicle injection was expressed as food intake (g)/body weight (kg) (Ruter et al. 2003). Data were expressed as mean ± SEM and analyzed by Kruskal-Wallis One Way ANOVA. Differences between groups were evaluated by the Student-Newman-Keuls method; p < 0.05 was considered significant."}
{"substance": "n-octanoyl-ghrelin", "values": [{"measurement": "cumulative food intake", "setting": "2h, vehicle plus vehicle 2.65 ± 0.93", "result": "7.71 ± 0.97", "unit": "g/kg body weight"}, {"measurement": "food intake", "setting": "first half hour, vehicle plus vehicle 1.49 ± 0.72", "result": "5.76 ± 0.68", "unit": "g/kg body weight"}, {"measurement": "cumulative food intake", "setting": "one hour, vehicle plus vehicle 1.49 ± 0.72", "result": "7.29 ± 0.92", "unit": "g/kg"}]}
